These results are taken from patent US11554105B2, “Combinations of artemisinins, BCL-2 inhibitors, and kinase inhibitors for cancer treatment” (UNIVERSITY OF MARYLAND, BALTIMORE, priority 2018, dated 2023).

Data set [1] relates to mitochondrial superoxide in MOLM14 cells. Put plainly: Mitochondrial superoxide (MitoSOX Red, flow cytometry). Particulars: 16 h. In kind it is cell-based, human. On the procedure: FIGS. 4A-4D. Effects of ART-838- and AS-containing drug combinations on MOLM14 growth and superoxide generation. […] CIs were computed as described above. CI<1 indicates synergy, CI=1, additivity, CI>1, antagonism. […] Cells were then loaded with 5 μM MitoSox for 30 min, washed, and analyzed by flow cytometry for MitoSox fluorescence (indicating mitochondrial superoxide) in the FL2 channel. Mean fluorescence intensity (MFI) was normalized to that of vehicle control (0.5% DMSO) with no pretreatment (100%, lower dotted lines). Upper dotted lines show MFI of ART-838- or AS-treated cells. Error bars represent the SEM of three independent experiments.
Cells were pretreated with NAC, Tiron, DFO, or vehicle then treated with AS, ART-838, or vehicle, as described above, then following a 16-hour drug treatment, cells were loaded with 5 μM MitoSOX Red (Invitrogen, Carlsbad, Calif.) for 30 minutes at 37° C. with 5% CO2, then analyzed using the FL2 channel of an Accuri C6 flow cytometer.
As both ART-838 and AS increased mitochondrial superoxide, and many antineoplastic drugs induce ROS generation, mitochondrial superoxide levels of MOLM14 cells treated with each of the above six antileukemic drugs were evaluated, alone and in combination with ART-838 or AS. All six drugs induced mitochondrial superoxide, although to a much lesser extent than did ART-838 (FIG. 4B) or AS (FIG. 4D).

The subject of another data set is human AML cell lines. Nature of the data set: In vitro efficacies of artemisinin derivatives against human AML cell lines. In kind it is cell-based. On the procedure: Cell lines were seeded in 96-well tissue culture plates at 10^4 cells per well (myeloid leukemia lines) or 2×10^4 cells per well (lymphoid leukemia lines) in culture medium, followed by addition of drugs at the indicated concentrations. 2-4 wells per plate containing media-only were included for background subtraction. Peripheral wells were filled with sterile water to minimize the effects of evaporation.
A novel trioxane dimer allyloxime-631 (ART631) has been designed to further extend in vivo T1/2 without sacrificing antimalarial activity.

Data set [2] concerns MV4:11 or MOLM14 AML xenografts. Nature of the data set: Luc-labelled AML xenografts treated with VEN, SOR and ART838 or ART631 (5-cycle MTD regimen). In kind it is in vivo, NRG mice. Particulars: two AML xenograft models; single agents and in combination with VEN+SOR. An excerpt:
FIG. 25A-25C. […] FIG. 25A) MTD cyclic drug treatment schema.
Outcome metrics included 1) maximal in vivo antileukemic efficacy 3 days (d) after completion of the 1st treatment cycle (FIG. 25B); 2) survival (FIG. 25C); and 3) toxicity.

Another data set is described as follows: in vivo. An excerpt: (§1) FIG. 24. Concentration-time profile for 2C-ARTs with PK parameters.
FIG. 25A-25C. […] NOD-Rag1^nullIL2rg^null (NRG) mice were transplanted IV with Luc-labelled MV4; 11 cells on d10. […] FIG. 25A) MTD cyclic drug treatment schema.

In data set [3] the test system is human leukemia cell lines. The note with it: more potent than AS; cited from earlier work.
For data set [4] the following is noted: PO qd×5 at MTD; 15 mg/kg ART631, 50 mg/kg ART838. On the procedure: as §1
Preliminary pharmacokinetic (PK) studies were designed to compare the PK of ART631 at steady-state at its maximum tolerated dose (MTD) (FIG. 24). […] ART631 plasma concentrations exceeded 50 nM for ˜8 h.

For data set [5] the following is noted: cited from earlier work.
For data set [6], the system named is MOLM14, KOPN8 and RCH-ACV cell lines. Put plainly: Kinase inhibitor drug combination screen, summary over the three cell lines. The note with it: >10% growth inhibition over the Bliss prediction; of three cell lines.
Procedure: Plates (3×384-well per set) contained 7 graded concentrations of each drug at 2× final concentration in culture media in 25 μl/well. […] Cells were plated such that each well contained 2500 cells (MOLM14) or 5000 cells (KOPN8 and RCH-ACV). […] Each plate contained two positive control wells used for background subtraction. Each plate also contained 45 wells without any drug. The background-subtracted absorbance for each well was normalized to the average of the no-drug wells from the corresponding vehicle plate.
Hits were ranked by the observed inhibition over the Bliss independence prediction.
Combinations with positive values for this Bliss difference were considered synergistic, values near zero, additive, and negative values, antagonistic.
In a further data set the test system is KOPN8. Put plainly: Kinase inhibitor drug combination screen (MTS, Bliss-independence analysis). The note with it: Drug 1 combined with ART-838 (Drug 2) at its approximate IC50, 48 h, average over seven Drug 1 concentrations. In kind it is cell-based, human.
A further data set relates to RCH-ACV. The description is as above. Particulars: Drug 1 combined with AS (Drug 2) at its approximate IC50, 48 h, average over seven Drug 1 concentrations.
Data set [7] deals with acute leukemia xenografts. Put plainly: Acute leukemia xenografts treated with ART838 two-drug combinations. In kind it is in vivo. The note with it: compared to vehicle or single drugs. An excerpt: (§2) To add to the efficacy of this ART838 plus ABT199 treatment regimen, rational addition of a third low-toxicity active antileukemic agent was investigated.
For a further data set, the system named is MCL1. Put plainly: Western blot of MCL1 protein levels. The note with it: acute leukemia / AML cell lines. In kind it is cell-based, human. Here is the method:
FIG. 22. ART631 increased ROS and CHOP levels, and reduced MCL1 protein levels. A) MOLM14 AML cells were pre-loaded with 5 mM ROS detection reagent CM-H2DCFDA for 30 m, pretreated with 11 mM for DFO for 60 m, then cultured with 200 nM ART631 or vehicle (DMSO) for 18 h and analyzed by flow cytometry. […] Protein was Western blotted as in FIG. 21. MCL1 protein levels were decreased and CHOP protein levels increased. C) From MOLM14 AML cells cultured as above, total RNA was isolated, cDNA synthesized, and SYBR Green qRT-PCR performed in triplicates. Ct values were normalized to housekeeping gene GAPDH and fold-change computed relative to vehicle control. DDIT3 mRNA (encoding CHOP protein) was increased. MV4; 11 AML and ML2 AML cell lines were tested with similar results.
as §2
Many acute myeloid leukemia (AML) cell lines express MCL1±BCL2 (FIG. 21). As with other ARTs, ART631 elevates AML cellular ROS (FIG. 22A), which is reduced by the iron chelator desferrioxamine (DFO). […] Culture of AML cells with ARTs increased CHOP protein and DDIT3 mRNA (encodes CHOP) levels (FIG. 22C).

The next data set deals with MOLM14 AML xenografts. Put plainly: Subcutaneous MOLM14 xenograft growth, SOR with AS. In kind it is in vivo, NSG mice. The note with it: tumor size on day 24; drugs p.o. On the procedure: FIG. 15. AS enhanced in vivo efficacy of Sorafenib (SOR) against acute leukemia xenografts in NSG mice. […] Drug or vehicle were given p.o. on day 3-7, 17-21, and 31-35 when possible. Mouse tumors were measured on the indicated days.
The NSG mice were obtained, maintained and handled as described in the paragraph immediately above. AS was also formulated in Tween 80:ethanol (7:3, v:v) and diluted 1:10 in filtered deionized water immediately before administration. For the human AML xenograft model, 6-12-week-old male NSG mice (>20 g) were transplanted sc with MOLM14 cells on day 0 and drug-treated via oral gavage, as specified in legend. Mice were monitored daily and euthanized when tumors reached an estimated mass of 2000 mg as described in the paragraph immediately above.
Palpable tumors appeared about 2 weeks after transplantation.

pIC50: −log10 of the molar value. Entries after “also recorded” stand apart in the source; their conditions may differ. Like-named read-outs stand apart in the source and are kept apart here. Marks after values point to notes of the source that are not given here.

Turning to `C[C@@H]1CCC2[C@@H](C)[C@@H](CC(COP(=O)(Oc3ccccc3)Oc3ccccc3)C[C@H]3O[C@@H]4O[C@@]5(C)CCC6[C@H](C)CCC([C@H]3C)[C@]64OO5)O[C@@H]3O[C@@]4(C)CCC1[C@@]23OO4` (some centres unmarked) [ART-838, artemisinin-derived trioxane diphenylphosphate dimer 838], the “mitochondrial superoxide generation, drug alone” value in data set [1] (2.25× approximate 48 h IC50, MitoSox MFI) is on record as “induced superoxide to greater levels than AS; also recorded: induced mitochondrial superoxide generation”. For the same compound, the pIC50 with human AML cell lines (median over the human AML cell lines tested (11 for AS and ART838, 4 for ART631), read-out: IC50 median) was 7.42; in the data set on human AML cell lines (range over the human AML cell lines tested (11 for AS and ART838, 4 for ART631), read-out: IC50 range) it was 6.26 to 8.00. Also, in data set [2], the “tolerability and antileukemic efficacy, ART631 compared with ART838” value is “closely similar tolerability and antileukemic efficacy”. Further, in the data set “in vivo” (5 d-on/9 d-off, gavage), the “previously established MTD, PO×5 d schedule” value turned out to be 50 mg/kg/day. The “MTD regimen, repeated dose” value in the data set “in vivo” (qd×5 PO) was found to be 50 mg/kg. For the same compound, the “in vitro potency relative to AS” value in [3] was 88 fold. Moreover, the “exposure, oral ART631 compared with ART838” value in data set [4] is listed as “similar”. In addition, the “in vivo T1/2” value in data set [5] is 3 h.

For the compound `COc1cc(Oc2ccnc3cc(OC)c(OC)cc23)ccc1NC(=O)NC(C)c1nccs1` (centres unmarked) [KI20227], the “No. Cell Lines synergistically inhibited by drug 1 combined with AS and/or ART-838” value in data set [6] was 2/3**. Further, the figures for the “fractional inhibition over Bliss prediction” value in the data set with KOPN8 and with RCH-ACV were “KOPN8 (0.12)” and “RCH-ACV (0.14)”, respectively.

Turning to `CNC(=O)c1cc(Oc2ccc(NC(=O)Nc3ccc(Cl)c(C(F)(F)F)c3)cc2)ccn1` [SOR, sorafenib], in data set [1] (drug combined with AS, each at 2.25× approximate 48 h IC50), the “effect of the drug on AS-induced superoxide” value is given as “reduced”. For the same compound, in data set [7], the “leukemia xenograft growth rates, drug combined with ART838” value is “reduced leukemia xenograft growth rates” and the “survival, drug combined with ART838” value is listed as “prolonged survivals”. Further, the MCL1 protein levels entry in the data set on MCL1 is recorded as “large reductions; also recorded: downregulates”. Also, the “tumor growth inhibition, AS plus SOR versus either drug alone” value in the data set on MOLM14 AML xenografts is on record as “inhibited tumor growth substantially more than did either drug alone”.
